Results published in paper PMC10600239, “Selective MCL-1 inhibitor ABBV-467 is efficacious in tumor models but is associated with cardiac troponin increases in patients” (Communications Medicine, 2023).
Values joined by “and” are separate entries in the source; they are usually repeats but may differ in a detail not shown here. Identical values can stand only once. Like-named read-outs stand apart in the source and are kept apart here.

Test: Phase 1 first-in-human study (NCT04178902): pharmacokinetics
Type: in vivo
From the text: Other eligibility criteria included: Eastern Cooperative Oncology Group performance status ≤2, measurable disease as defined by International Myeloma Working Group (IMWG) consensus criteria, an echocardiogram with an ejection fraction ≥50%, and adequate hematologic, hepatic, and renal function. […] Safety evaluations included, but were not limited to, adverse event (AE) monitoring, physical examinations, vital sign measurements, electrocardiogram (ECG), cardiac enzyme monitoring, and clinical laboratory testing (hematology and chemistry) as a measure of safety and tolerability for the entire study duration. Parameters used to determine PK included maximum observed plasma concentration (Cmax), terminal elimination half-life (t1/2), area under the plasma concentration-time curve (AUC) from time 0 to time of last measurable concentration (AUCt), AUC from time 0 to infinity (AUC0-∞), and clearance using non-compartmental methods. […] Preliminary efficacy endpoints were overall response rate (ORR), clinical benefit rate (CBR), and duration of response (DOR) as evaluated per adapted IMWG[36] criteria for MM and per adapted International Working Group (IWG)[37] and European Leukemia Net (ELN)[38] criteria for AML. […]

[1] = Cycle 1 day 1, dose level 0.32 mg/kg (only half of this dose given), N=2, individual values
[2] = Cycle 1 day 15, 0.32 mg/kg, N=2, individual values
[3] = Cycle 1 day 15, 0.53 mg/kg, N=2, individual values

Question: What does the source list for `Cc1c(Cl)c2c(Cl)c(C)c1-c1c(-c3ccc(F)cc3)sc3ncnc(c13)O[C@@H](C(=O)O)Cc1cc(ccc1OCc1ccnc(-c3ccc(OC[C@H]4COCCO4)cc3)n1)OC[C@@H](CN1CCN(C)CC1)O2` [ABBV-467]?
Answer: CONC_NGML (Cycle 1 Day 1, DOSE_MGKG 0.08, cohort 1, PKTIME 0.333333): 157 ng/mL and 146 ng/mL; CONC_NGML (Cycle 1 Day 1, DOSE_MGKG 0.08, cohort 1, PKTIME 0.5): 198 ng/mL and 162 ng/mL; CONC_NGML (Cycle 1 Day 1, DOSE_MGKG 0.16, cohort 2, PKTIME 0.5): 344 ng/mL; CONC_NGML (Cycle 1 Day 1, DOSE_MGKG 0.16, cohort 2, PKTIME 1): 21.9 ng/mL; CONC_NGML (Cycle 1 Day 1, DOSE_MGKG 0.16, cohort 2, PKTIME 1.5): 17 ng/mL; CONC_NGML (Cycle 1 Day 1, DOSE_MGKG 0.16, cohort 2, PKTIME 2.5): 6.62 ng/mL; CONC_NGML (Cycle 1 Day 1, DOSE_MGKG 0.265, cohort 3, PKTIME 0.333333): 655 ng/mL and 470 ng/mL; CONC_NGML (Cycle 1 Day 1, DOSE_MGKG 0.265, cohort 3, PKTIME 0.5): 708 ng/mL and 613 ng/mL; CONC_NGML (Cycle 1 Day 1, DOSE_MGKG 0.265, cohort 3, PKTIME 1.5): 26.5 ng/mL and 26.6 ng/mL; CONC_NGML (Cycle 1 Day 1, DOSE_MGKG 0.265, cohort 3, PKTIME 2.5): 6.81 ng/mL and 11.1 ng/mL; CONC_NGML (Cycle 1 Day 15, DOSE_MGKG 0.16, cohort 1, PKTIME 0.333333): 297 ng/mL and 479 ng/mL; CONC_NGML (Cycle 1 Day 15, DOSE_MGKG 0.16, cohort 1, PKTIME 1): 46.8 ng/mL and 44.6 ng/mL; CONC_NGML (Cycle 1 Day 15, DOSE_MGKG 0.16, cohort 1, PKTIME 1.5): 14.6 ng/mL and 10.1 ng/mL; CONC_NGML (Cycle 1 Day 15, DOSE_MGKG 0.32, cohort 2, PKTIME 0.333333): 529 ng/mL; CONC_NGML (Cycle 1 Day 15, DOSE_MGKG 0.53, cohort 3, PKTIME 0.166667): 940 ng/mL; CONC_NGML (Cycle 1 Day 15, DOSE_MGKG 0.53, cohort 3, PKTIME 0.333333): 1430 ng/mL; CONC_NGML (Cycle 1 Day 15, DOSE_MGKG 0.53, cohort 3, PKTIME 0.5): 1510 ng/mL; CONC_NGML (Cycle 1 Day 15, DOSE_MGKG 0.53, cohort 3, PKTIME 1.5): 60.6 ng/mL; CONC_NGML (Cycle 1 Day 15, DOSE_MGKG 0.53, cohort 3, PKTIME 2.5): 26.3 ng/mL; CONC_NGML (Cycle 1 Day 15, DOSE_MGKG 0.53, cohort 3, PKTIME 4.5): 8.14 ng/mL; AUCinf [1]: 309 ng·h/mL; AUCt [1]: 306 ng·h/mL; CL [1]: 8.62 mL/min/kg; Cmax [1]: 344 ng/mL; t1/2 [1]: 34.4 min; AUCinf [2]: 940 ng·h/mL and 350 ng·h/mL; AUCt [2]: 346 ng·h/mL and 933 ng·h/mL; CL [2]: 5.67 mL/min/kg and 15.2 mL/min/kg; Cmax [2]: 1720 ng/mL and 646 ng/mL; Tmax [2]: 45.0 min; t1/2 [2]: 23.0 min and 54.3 min; AUCinf [3]: 1290 ng·h/mL; AUCt [3]: 1280 ng·h/mL; CL [3]: 6.83 mL/min/kg; Cmax [3]: 1860 ng/mL; t1/2 [3]: 64.1 min; pharmacokinetics (human patients at the doses studied): linear pharmacokinetics; concentration at 0 h (human, in vivo, 0.08 mg/kg, Cycle 1 Day 1, DOSE_MGKG 0.08, cohort 1, PKTIME 0, read-out: CONC_NGML): 0 ng/mL; concentration at 20 min (human, in vivo, 0.08 mg/kg, Cycle 1 Day 1, DOSE_MGKG 0.08, cohort 1, PKTIME 0.333333, read-out: CONC_NGML): 132 ng/mL; concentration at 0.5 h (human, in vivo, 0.08 mg/kg, Cycle 1 Day 1, DOSE_MGKG 0.08, cohort 1, PKTIME 0.5, read-out: CONC_NGML): 252 ng/mL; concentration at 4.5 h (human, in vivo, 0.08 mg/kg, Cycle 1 Day 1, DOSE_MGKG 0.08, cohort 1, PKTIME 4.5, read-out: CONC_NGML): 0 ng/mL; concentration at […] (human, in vivo, 0.08 mg/kg, Cycle 1 Day 1, DOSE_MGKG 0.08, cohort 1, PKTIME 8.5, read-out: CONC_NGML): 0 ng/mL; concentration at […] (human, in vivo, 0.08 mg/kg, Cycle 1 Day 1, DOSE_MGKG 0.08, cohort 1, PKTIME 24.5, read-out: CONC_NGML): 0 ng/mL; concentration at 0 h (human, in vivo, 0.265 mg/kg, Cycle 1 Day 1, DOSE_MGKG 0.265, cohort 3, PKTIME 0, read-out: CONC_NGML): 0 ng/mL; concentration at 20 min (human, in vivo, 0.265 mg/kg, Cycle 1 Day 1, DOSE_MGKG 0.265, cohort 3, PKTIME 0.333333, read-out: CONC_NGML): 904 ng/mL; concentration at 0.5 h (human, in vivo, 0.265 mg/kg, Cycle 1 Day 1, DOSE_MGKG 0.265, cohort 3, PKTIME 0.5, read-out: CONC_NGML): 564 ng/mL
